How the values were obtained:
[1] = target: T1, Fatty-acid amide hydrolase 1 (Rattus norvegicus, UniProt P97612)
T1 sequence (P97612 whole entry): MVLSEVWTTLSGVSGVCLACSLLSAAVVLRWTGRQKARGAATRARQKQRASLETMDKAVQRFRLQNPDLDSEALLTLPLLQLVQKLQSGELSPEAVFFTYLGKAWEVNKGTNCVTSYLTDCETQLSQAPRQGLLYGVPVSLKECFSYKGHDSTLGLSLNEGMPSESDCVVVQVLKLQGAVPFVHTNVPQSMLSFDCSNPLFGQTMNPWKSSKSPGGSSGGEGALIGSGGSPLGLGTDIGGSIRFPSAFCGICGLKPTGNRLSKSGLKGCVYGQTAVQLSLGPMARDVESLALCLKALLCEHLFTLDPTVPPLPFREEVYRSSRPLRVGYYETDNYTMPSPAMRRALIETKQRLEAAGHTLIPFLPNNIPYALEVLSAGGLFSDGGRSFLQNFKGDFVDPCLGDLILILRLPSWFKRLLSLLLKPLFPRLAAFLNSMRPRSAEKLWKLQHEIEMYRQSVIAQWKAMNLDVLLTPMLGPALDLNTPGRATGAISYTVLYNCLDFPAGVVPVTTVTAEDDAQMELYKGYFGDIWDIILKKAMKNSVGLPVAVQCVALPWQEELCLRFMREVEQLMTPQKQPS

[2] = Inhibition of HDAC
Coagulation factor X = Coagulation factor X (Homo sapiens, UniProt P00742); test: Inhibition of human factor 10a
Trypsin = Trypsin (Homo sapiens, UniProt P07477+P07478+P35030); test: Inhibition of human trypsin; format: protein assay
Prothrombin = Prothrombin (Homo sapiens, UniProt P00734); test: Inhibition of human alpha-thrombin
Prolyl endopeptidase = Prolyl endopeptidase (Sus scrofa, UniProt P23687)
[3] = Inhibition of human beta-tryptase

Chain of Coagulation factor X (P00742 41-179 limits assumed): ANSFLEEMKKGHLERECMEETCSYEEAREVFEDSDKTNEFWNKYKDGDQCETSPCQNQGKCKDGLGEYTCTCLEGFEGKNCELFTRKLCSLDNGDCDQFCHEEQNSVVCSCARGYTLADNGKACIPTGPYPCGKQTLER
Chain of Coagulation factor X (P00742 235-488 limits assumed): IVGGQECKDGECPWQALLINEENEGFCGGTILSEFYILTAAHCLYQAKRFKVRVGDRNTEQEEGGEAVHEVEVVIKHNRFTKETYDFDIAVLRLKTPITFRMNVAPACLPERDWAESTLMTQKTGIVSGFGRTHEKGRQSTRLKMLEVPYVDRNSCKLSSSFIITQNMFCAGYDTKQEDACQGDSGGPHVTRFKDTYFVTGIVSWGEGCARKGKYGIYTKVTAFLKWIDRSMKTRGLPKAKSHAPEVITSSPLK
Chain of Prolyl endopeptidase (P23687 whole entry): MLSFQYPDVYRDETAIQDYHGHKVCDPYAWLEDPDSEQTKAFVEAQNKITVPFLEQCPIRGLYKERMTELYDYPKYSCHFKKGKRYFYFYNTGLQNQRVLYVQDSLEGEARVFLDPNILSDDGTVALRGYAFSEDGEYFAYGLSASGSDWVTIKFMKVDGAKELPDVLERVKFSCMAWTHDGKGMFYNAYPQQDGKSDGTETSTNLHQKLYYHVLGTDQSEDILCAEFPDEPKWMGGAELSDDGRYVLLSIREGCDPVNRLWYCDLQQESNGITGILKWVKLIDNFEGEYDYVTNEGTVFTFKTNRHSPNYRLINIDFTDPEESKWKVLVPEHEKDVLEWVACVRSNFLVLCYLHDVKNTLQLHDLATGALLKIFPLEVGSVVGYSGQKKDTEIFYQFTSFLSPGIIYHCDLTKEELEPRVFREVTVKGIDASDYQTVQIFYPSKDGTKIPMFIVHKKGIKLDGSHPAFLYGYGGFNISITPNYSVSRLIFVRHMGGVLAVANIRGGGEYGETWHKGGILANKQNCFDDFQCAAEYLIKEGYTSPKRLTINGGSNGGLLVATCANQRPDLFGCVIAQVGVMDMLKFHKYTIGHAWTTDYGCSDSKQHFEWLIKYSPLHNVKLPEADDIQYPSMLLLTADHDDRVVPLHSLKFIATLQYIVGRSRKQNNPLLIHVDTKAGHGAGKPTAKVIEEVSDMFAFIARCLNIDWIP

## CCCCCCCC/C=C\CCCCCCCC(=O)c1nnnn1C
[1]
  Ki: 3700 nM

## O=C(CCCCCCOc1ccc(-c2ccccc2)cc1)c1nc2ccccc2o1
[2]
  IC50: > 50000 nM

## CC(C)(C)CC(=O)N[C@H](Cc1ccccc1)C(=O)N1CCC[C@H]1C(=O)N[C@@H](CCCNC(=N)N)C(=O)c1nc2ccccc2o1.O=C(O)C(F)(F)F
Coagulation factor X
  IC50: 110 nM
Trypsin
  IC50: 2.3 nM

## O=C(CCCCCCC(=O)c1ncco1)Nc1cccc(-c2ccccc2)c1
[2]
  IC50: 60 nM

## COC(=O)n1nnnc1C(=O)[C@@H](NC(=O)[C@@H]1CC[C@H]2CN(S(=O)(=O)Cc3ccccc3)CC(=O)N21)[C@H]1CC[C@H](N)CC1
Trypsin
  Ki: > 400000 nM
Prothrombin
  Ki: 2600 nM

## CCCCCCCCCC/C=C\CCCCCCC(=O)c1ncc(-c2cccnn2)o1
[1]
  Ki: 14 nM

## O=C(CCc1ccc(-c2ccccc2)cc1)c1nc(-c2ccccn2)co1
[1]
  Ki: 0.75 nM

## O=C(c1cscn1)[C@@H]1CCCN1C(=O)[C@@H]1CCCN1CCCc1ccccc1
Prolyl endopeptidase
  IC50: 13 nM

## CCCCC(=O)c1nc2ncccc2o1
[1]
  Ki: 50 nM

## N[C@H]1CC[C@H]([C@H](NC(=O)[C@@H]2CC[C@H]3CN(S(=O)(=O)Cc4ccccc4)CC(=O)N32)C(=O)c2nccs2)CC1
Trypsin
  Ki: 8000 nM
Prothrombin
  Ki: 3.2 nM

## N=C(N)N1CCC[C@@H](C[C@H](NC(=O)CN2CC(=O)N(CCCc3ccccc3)CC2=O)C(=O)c2nccs2)C1
Trypsin
  IC50: 91000 nM
Prothrombin
  Ki: 500 nM

## CC(=O)N1CCC[C@@H]1C(=O)N[C@@H](CCCN=C(N)N)C(=O)c1nc2ccccc2s1
[3]
  Ki: 14000 nM

## N=C(N)NCCC[C@H](NC(=O)Cn1c(Cc2ccccc2)c(Cl)nc(NCCc2ccccc2)c1=O)C(=O)c1nccs1
Trypsin
  IC50: 470 nM

## O=C(CCCCCCOc1ccc(-c2ccccc2)cc1)c1ncco1
[2]
  IC50: 1000 nM

## COc1ccc(-c2csc(NC(=O)CCCCCCC(=O)c3ncco3)n2)cc1
[2]
  IC50: 30 nM

## O=C(CCCCCCC(=O)c1ncco1)Nc1cc2ccccc2[nH]1
[2]
  IC50: 90 nM

## O=C(c1ncc[nH]1)[C@@H]1CCCN1C(=O)[C@@H]1CCCN1CCCc1ccccc1
Prolyl endopeptidase
  IC50: 9 nM

## N=C(N)NCCC[C@@H](NS(=O)(=O)Cc1ccccc1)C(=O)NCC(=O)N[C@@H](Cc1c[nH]c2ccccc12)C(=O)c1nccs1
Coagulation factor X
  IC50: 39 nM
Trypsin
  IC50: > 180000 nM

## O=C(c1ccccn1)[C@@H]1CCCN1C(=O)[C@@H]1CCCN1CCCc1ccccc1
Prolyl endopeptidase
  IC50: 6.9 nM

## CCCCC/C=C\C/C=C\C/C=C\C/C=C\CCCC(=O)c1nc2ncccc2o1
[1]
  Ki: 1 nM

## O=C(CCCCCC(=O)c1ncco1)Nc1cccc(-c2ccccc2)c1
[2]
  IC50: 310 nM

## O=C(CCCCCCOc1ccc(-c2ccccc2)cc1)c1ccccn1
[2]
  IC50: > 50000 nM

## CCCCC/C=C\C/C=C\C/C=C\C/C=C\CCCC(=O)[n+]1ccccn1
[1]
  Ki: 47 nM

## C[C@H]1C(=O)N(CCCc2ccccc2)CC(=O)N1CC(=O)N[C@@H](C[C@@H]1CCCN(C(=N)N)C1)C(=O)c1nccs1
Trypsin
  IC50: 24000 nM

## CC(=O)N[C@@H](CC(C)C)C(=O)N[C@@H](CCCN=C(N)N)C(=O)c1nc2ccccc2s1
[3]
  Ki: 41 nM

## CCCCCCCC/C=C\CCCCCCCC(=O)c1cccnn1
[1]
  Ki: 130 nM

## O=C(CCCCCCOc1ccc(-c2ccccc2)cc1)C1=NCCO1
[2]
  IC50: 1000 nM

## CCCCCCCC/C=C\CCCCCCCC(=O)c1nc2ccncc2o1
[1]
  Ki: 3.7 nM

## N=C(N)N1CCC([C@H](NC(=O)[C@@H]2CC[C@H]3CN(C(=O)CCc4ccccc4)CC(=O)N32)C(=O)c2nccs2)CC1
Trypsin
  IC50: 11900 nM

## NC(N)=NCCC[C@H](NC(=O)CN1CCN(S(=O)(=O)c2ccccc2)CC1=O)C(=O)c1nccs1
Coagulation factor X
  IC50: 8 nM
Prothrombin
  IC50: 420 nM

## C[C@@H]1C(=O)N(CCCc2ccccc2)CC(=O)N1CC(=O)N[C@@H](C[C@@H]1CCCN(C(=N)N)C1)C(=O)c1nccs1
Trypsin
  IC50: 340 nM

## O=C(CCCCCCOc1ccc(-c2ccccc2)cc1)c1ncc[nH]1
[2]
  IC50: > 50000 nM

## CCCCCCCC(=O)c1nc2ncccc2o1
[1]
  Ki: 0.69 nM

## N=C(N)NCCC[C@H](NC(=O)CN1CCN(S(=O)(=O)Cc2ccccc2)[C@H](Cc2ccccc2)C1=O)C(=O)c1nccs1
Coagulation factor X
  IC50: 0.9 nM
Prothrombin
  IC50: 510 nM

## CCCCCCCC/C=C\CCCCCCCC(=O)c1ncco1
[1]
  Ki: 17 nM

## CCCCCCCC/C=C\CCCCCCCC(=O)c1nnco1
[1]
  Ki: 90 nM

## O=C(CCCCCCOc1cccc(-c2ccccc2)c1)c1ncco1
[2]
  IC50: 620 nM

## CC(=O)N1C[C@H](O)C[C@H]1C(=O)N[C@@H](CCCNC(=N)N)C(=O)c1nccs1
[3]
  Ki: 180 nM

## N=C(N)NCCC[C@H](NC(=O)CN1CCN(C(=O)c2ccccc2)CC1=O)C(=O)c1nccs1
Coagulation factor X
  IC50: 320 nM
Prothrombin
  IC50: 7000 nM

## N=C(N)N1CCC[C@@H](C[C@H](NC(=O)[C@@H]2CC[C@H]3CN(C(=O)CCc4ccccc4)CC(=O)N32)C(=O)c2nc3ccccc3s2)C1
Trypsin
  IC50: 590 nM
Prothrombin
  IC50: < 1 nM

## O=C(CCCCCCOc1ccc(-c2ccccc2)cc1)c1nccs1
[2]
  IC50: > 50000 nM

## N=C(N)N1CCC[C@@H](C[C@H](NC(=O)CN2C(=O)CN(CCCc3ccccc3)C(=O)[C@H]2Cc2ccccc2)C(=O)c2nccs2)C1
Trypsin
  IC50: 9100 nM

## CC(=O)NCC(=O)N[C@@H](CCCN=C(N)N)C(=O)c1nc2ccccc2s1
[3]
  Ki: 470 nM

## N=C(N)NCCC[C@H](NC(=O)CN1CCN[C@@H](CCCNC(=N)N)C1=O)C(=O)c1nccs1
Coagulation factor X
  IC50: 11 nM
Prothrombin
  IC50: 150000 nM

## CC(=O)N1CCC[C@H]1C(=O)N[C@@H](CCCN=C(N)N)C(=O)c1nc2ccccc2s1
Prothrombin
  IC50: 14000 nM
[3]
  Ki: 19 nM

## COC(=O)c1cccnc1-c1cnc(C(=O)CCCCCCc2ccccc2)o1
[1]
  Ki: 130 nM

## N[C@H]1CC[C@H]([C@H](NC(=O)[C@@H]2CC[C@H]3CN(S(=O)(=O)Cc4ccccc4)CC(=O)N32)C(=O)c2nc3ccccc3s2)CC1
Trypsin
  Ki: 1400 nM
Prothrombin
  Ki: 0.7 nM

## NCCCCC(NC(=O)[C@H](Cc1ccccc1)NC(=O)[C@@H](Cc1ccccc1)NS(=O)(=O)Cc1ccccc1)C(=O)c1nc2ccccc2s1 (stereo not given in full)
[3]
  Ki: 23 nM

## NC(N)=NCCC[C@H](NC(=O)CN1CCN(C(=O)Cc2ccccc2)CC1=O)C(=O)c1nccs1
Coagulation factor X
  IC50: 17 nM
Prothrombin
  IC50: 11000 nM

## COc1ccnc(-c2cnc(C(=O)CCCCCCc3ccccc3)o2)c1
[1]
  Ki: 0.8 nM

## CCCCCCCC/C=C\CCCCCCCC(=O)c1nnn(C)n1
[1]
  Ki: 65 nM

## N=C(N)NCCC[C@H](NC(=O)CN1CCN(Cc2ccccc2)CC1=O)C(=O)c1nccs1
Coagulation factor X
  IC50: 770 nM
Prothrombin
  IC50: 14000 nM

## N=C(N)NCCC[C@H](NC(=O)CNC(=O)[C@@H](CC1CCCCC1)NS(=O)(=O)Cc1ccccc1)C(=O)c1nccs1
Coagulation factor X
  IC50: 0.6 nM
Prothrombin
  IC50: 40 nM

## Cn1ccnc1C(=O)CCCCCCOc1ccc(-c2ccccc2)cc1
[2]
  IC50: > 50000 nM

## CCCCCCCC/C=C\CCCCCCCC(=O)c1nc2ccccc2s1
[1]
  Ki: > 100000 nM

## O=C(CCCCCCOc1ccc(-c2ccccc2)cc1)c1nnn[nH]1
[2]
  IC50: 1000 nM

## Cc1nc(C(=O)[C@@H](NC(=O)[C@@H]2CC[C@H]3CN(S(=O)(=O)Cc4ccccc4)CC(=O)N32)[C@H]2CC[C@H](N)CC2)sc1C(=O)O
Trypsin
  Ki: 65000 nM
Prothrombin
  Ki: 80 nM

## Cn1nnnc1C(=O)[C@@H](NC(=O)[C@@H]1CC[C@H]2CN(S(=O)(=O)Cc3ccccc3)CC(=O)N21)[C@H]1CC[C@H](N)CC1
Trypsin
  Ki: 35000 nM
Prothrombin
  Ki: 5 nM

## CNC(=O)C(=O)CCCCCCOc1ccc(-c2ccccc2)cc1
[2]
  IC50: 110 nM

## CCCCCCCC/C=C\CCCCCCCC(=O)c1nccs1
[1]
  Ki: > 100000 nM

## N=C(N)NCCC[C@H](NC(=O)CN1CCN(S(=O)(=O)Cc2ccccc2)[C@@H](Cc2ccccc2)C1=O)C(=O)c1nccs1
Coagulation factor X
  IC50: 59 nM
Prothrombin
  IC50: 2000 nM

## CN[C@H](Cc1ccccc1)C(=O)N1CCC[C@H]1C(=O)N[C@](C)(CCCNC(=N)N)C(=O)c1nc2ccccc2s1.O=C(O)C(F)(F)F
Trypsin
  IC50: 6000 nM
Prothrombin
  IC50: 3700 nM

## NC(N)=NCCC[C@H](NC(=O)CN1CCN[C@H](CCCN=C(N)N)C1=O)C(=O)c1nccs1
Coagulation factor X
  IC50: 21 nM
Prothrombin
  IC50: 200000 nM

## O=C(CCCCCCNc1ccc2ccccc2c1)c1ncco1
[2]
  IC50: 430 nM

## CC(=O)N1C[C@H](O)C[C@@H]1C(=O)N[C@@H](CCCNC(=N)N)C(=O)c1nc2ccccc2s1
[3]
  Ki: 380 nM

From ChEMBL document CHEMBL1143211, “Inhibitors of proteases and amide hydrolases that employ an alpha-ketoheterocycle as a key enabling functionality” (Bioorg Med Chem, 2008)
